According to PMC11489250, “Optimized methods for measuring competitive binding of chemical substances to thyroid hormone distributor proteins transthyretin and thyroxine binding globulin” (Archives of Toxicology, 2024):
Where two headings read alike, the source gives them in different places.

How the values were obtained:
[1] = target: T1, thyroxine-binding globulin (TBG) (Homo sapiens, UniProt P05543); experiment: Competitive TBG-binding assay with FITC-T4 (fluorescence polarization readout); settings: for IC20 / inhibition of the FITC-T4 binding to TBG (in words) / Ki / IC50: RT
T1 construct: purchased Bio-rad Laboratories, Inc. (Veenendaal, The Netherlands)
T1 sequence (P05543 21-415): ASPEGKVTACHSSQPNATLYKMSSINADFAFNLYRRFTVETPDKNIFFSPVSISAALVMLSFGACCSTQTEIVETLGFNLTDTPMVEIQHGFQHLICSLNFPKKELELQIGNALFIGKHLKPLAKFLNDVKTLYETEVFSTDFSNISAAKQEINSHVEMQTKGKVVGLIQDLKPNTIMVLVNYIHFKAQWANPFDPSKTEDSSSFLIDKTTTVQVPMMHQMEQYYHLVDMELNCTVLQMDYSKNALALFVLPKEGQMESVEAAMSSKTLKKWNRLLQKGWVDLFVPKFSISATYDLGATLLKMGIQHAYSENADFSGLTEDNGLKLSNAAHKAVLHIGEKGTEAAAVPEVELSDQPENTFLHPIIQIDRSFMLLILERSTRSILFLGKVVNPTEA
Procedure: Prepared plates were first shaken for 5 min and then incubated for 15 min at room temperature before being analysed by the microplate reader at FP mode (CLARIOstar Plus, BMG LABTECH).
Accordingly, dilution series of all compounds were prepared in DMSO. First, 24 µL Tris–HCl buffer was pipetted to the wells, followed by 1 µL of the compound stock solution. […] Solvent (DMSO) concentrations in all conditions were 1%. The plates were shaken for 5 min on a plate shaker, followed by an incubation for 15 min at room temperature.
The adjusted polarization was set to a reference value of 35 mP. The adjustment gain values ranged from 1900 to 2200. The plate layout of TBG-binding assay is provided in Supplementary Information file (Section 4).
For the competitive TBG-binding experiments, concentration–response curves were fitted:2 r=rmin+rmax-rmin/1+IC50/X^HillSlope with rmin and rmax being the minimum and maximum anisotropy values, respectively. X is the concentration of added competitor. Equations that were used for the calculation of the ICX and Ki values in the TTR-binding assays (Supplementary Information, Section 3) were also used to determine the ICX and Ki values in TBG-binding assays without any changes, respectively. The single Kd, IC20, IC50 and Ki were determined based on replicates (n) in each experiment, and then the average and confidence intervals were determined based on the Kd, IC20, IC50 and Ki values from sperate experiments (N).
Alternatively, another approach to determine ICX, Kd and Ki values based on a theoretical model of ligand–protein binding biochemistry was taken as described in detail in the Supplementary Information file (Section 5). For this approach, R was used to fit the model to the data. The results obtained from the two approaches were compared in Section 3.4.
S5.2 Ki and IC50 estimation

[2] = target: T2, Human TTR (Homo sapiens, UniProt P02766); settings: FITC-T4 110 nM, human TTR 30 nM, 4 °C, 2 h; ref Hamers et al. [2020]; read-out: TTR literature Ki; cited from earlier work
T2 construct: Transthyretin (prealbumin, TTR) >95% from human plasma; purchased Sigma Aldrich (Zwijndrecht, The Netherlands); host or cells: human plasma

[3] = target: T2, Human TTR; experiment: Optimized competitive TTR-binding assay with FITC-T4 (fluorescence intensity readout); settings: for T4EQ concentration (TTR binding): T4EQi = highest human blood concentration x T4-REPi; for Contribution to T4EQ concentration (TTR binding): mixture of highest human blood concentrations of five model compounds; for IC20: read-out: TTR IC20
Procedure: All TTR-binding experiments were performed in black 96-well polystyrene nonbinding plates. Experimental wells and background wells were prepared in triplicate per plate. […] Fluorescence intensity (FI) was measured at λex = 485 ± 20 nm and λem = 528 ± 20 nm (CLARIOstar Plus microplate reader, BMG LABTECH).
To test the effect of the change in temperature and incubation time, a saturation experiment (N = 3, n = 3) was performed in Tris–HCl buffer (0.1 M Tris (Thermo Scientific, Rockford, USA), 0.1 M NaCl (Merck KGaA, Darmstadt, Germany), 1 mM EDTA (VWR International, B.V. Amsterdam, The Netherlands); pH 8.0). […] Two 96-well plates were prepared at the same time. After shaking for 5 min on a plate shaker, one prepared plate was incubated on ice (at 4 °C) and another plate was incubated at room temperature (22 °C). For both plates the fluorescence was measured at different time points: 5 min, 15 min, 60 min and 120 min.
First, 48 µL Tris–HCl buffer (pH 8.0) was pipetted to the wells, followed by 2 µL of the compound (in DMSO). […] Final solvent (DMSO) concentrations in all conditions amounted to 1%. All plates were shaken for 5 min on a plate shaker, followed by an incubation for 15 min at room temperature. The standard operation procedure (SOP) is provided in Supplementary Information file (Section 3).
Calculations of the ICX, Kd and Ki values of TTR-binding assays are described in the Supplementary Information file (Section 3).
3.7.5 The competitive TTR binding screening assay
3.7.8 Processing data to determine IC50 and calculate Ki value

[4] = target: Recombinant TTR; parameters: method as in Marchesini et al. [2006]; settings: T4 100 nM, recombinant TTR 18.2 nM, 25 °C, 10 min, ref Marchesini et al. [2006], cited from earlier work
[5] = target: TBG; parameters: method as in Qi et al. [2011]; settings: ref Qi et al. [2011]; read-out: TBG literature Ki; cited from earlier work
[6] = target: TBG; parameters: method as in Ren and Guo [2012]; settings: ref Ren and Guo [2012]; read-out: TBG literature Ki; cited from earlier work
[7] = target: TBG; parameters: method as in Cao et al. [2010]; settings: ref Cao et al. [2010]; read-out: TBG literature Ki; cited from earlier work
[8] = test system: TBG; parameters: method as in Marchesini et al. [2008]; settings: T4-coated chips and TBG; ref Marchesini et al. [2008]; read-out: TBG IC50 (SPR biosensor); cited from earlier work
[9] = target: TBG; parameters: method as in Ren et al. [2016]; settings: ref Ren et al. [2016], cited from earlier work
[10] = target: T1, thyroxine-binding globulin (TBG); experiment: Competitive TBG-binding assay with FITC-T4 (fluorescence polarization readout); settings: 37 °C, 15 min, preliminary temperature experiment (N = 2)
[11] = test system: TTR; settings: ref Ren et al. [2020]; cited from earlier work
[12] = test system: TBG; settings: highest tested concentration 100 µM with 100 nM TBG and 50 nM FITC-T4; ref Ren et al. [2020]; cited from earlier work
[13] = 5 nM FITC-T4, 10 nM TBG, 15 min, descriptive model (Graphpad), average [95% CI], read-out: TBG IC20
[14] = 5 nM FITC-T4, 10 nM TBG, theoretical model in R, average [95% CI], read-out: TBG IC20, theoretical model
[15] = 110 nM FITC-T4, 30 nM TTR, RT, 15 min, average [95% CI]
[16] = 5 nM FITC-T4, 10 nM TBG, 15 min, derived from IC20, descriptive model (Graphpad), average [95% CI], read-out: TBG Ki
[17] = 5 nM FITC-T4, 10 nM TBG, 15 min, descriptive model (Graphpad), average [95% CI]
[18] = 5 nM FITC-T4, 10 nM TBG, theoretical model in R, average [95% CI], read-out: TBG Ki values, theoretical model

Oc1cc(Cl)ccc1Oc1ccc(Cl)cc1Cl [Triclosan, triclosan]
IC20 [1, 13]: 284 nM
IC20 [1, 14]: 293 nM

O=S(=O)(O)C(F)(F)C(F)(F)C(F)(F)C(F)(F)C(F)(F)C(F)(F)C(F)(F)C(F)(F)F [PFOS, Perfluorooctanesulfonic acid]
Ki [2]: 160 nM
T4EQ concentration (TTR binding) [3]: 9.73 nM
IC50 ([3]; TTR IC50, 110 nM FITC-T4, 30 nM TTR, RT, 15 min, average [95% CI]): 271 nM
IC50 ([3]; TTR IC50 [95% CI], 55 nM FITC-T4, 30 nM TTR, RT (5 min)): 191 nM
IC50 ([3]; TTR IC50 [95% CI], 55 nM FITC-T4, 30 nM TTR, RT (15 min)): 189 nM
IC50 ([3]; TTR IC50 [95% CI], 55 nM FITC-T4, 30 nM TTR, RT (60 min)): 196 nM
IC50 ([3]; TTR IC50 [95% CI], 55 nM FITC-T4, 30 nM TTR, RT (120 min)): 194 nM
IC50 ([3]; TTR IC50 [95% CI], 55 nM FITC-T4, 30 nM TTR, on ice (120 min)): 179 nM
Ki ([3]; TTR Ki [95% CI], 55 nM FITC-T4, 30 nM TTR, RT (5 min)): 143 nM
Ki ([3]; TTR Ki [95% CI], 55 nM FITC-T4, 30 nM TTR, RT (15 min)): 133 nM
Ki ([3]; TTR Ki [95% CI], 55 nM FITC-T4, 30 nM TTR, RT (60 min)): 127 nM
Ki ([3]; TTR Ki [95% CI], 55 nM FITC-T4, 30 nM TTR, RT (120 min)): 133 nM
Ki ([3]; TTR Ki [95% CI], 55 nM FITC-T4, 30 nM TTR, on ice (120 min)): 171 nM
Ki ([3]; TTR Ki, 110 nM FITC-T4, 30 nM TTR, RT, 15 min, derived from IC20, average [95% CI]): 243 nM
Contribution to T4EQ concentration (TTR binding) [3]: 50.9%
IC20 [3]: 118 nM
inhibition of the FITC-T4 binding to TBG (in words) ([1]; 5 nM FITC-T4, 10 nM TBG): No (or only limited) inhibition

OC[C@@H](O)[C@@H](O)[C@H](O)[C@H](O)CO [D-mannitol]
displacement of FITC-T4 from TTR (in words) ([3]; 110 nM FITC-T4, 30 nM TTR, RT): Except for D-mannitol, all compounds displaced FITC-T4 from TTR
inhibition of the FITC-T4 binding to TBG (in words) ([1]; 5 nM FITC-T4, 10 nM TBG): no inhibition

N[C@@H](Cc1cc(I)c(Oc2cc(I)c(O)c(I)c2)c(I)c1)C(=O)O [T4, 3,3′,5,5′-tetraiodothyronine]
Kd ([4]; read-out: Determined Kd value of ligand with TTR): 9.2 ± 1.2 nM
Ki ([4]; read-out: TTR literature Ki): 13.7 ± 1.3 nM
Ki [5]: 2.2 nM
IC20 [3, 15]: 25 nM
Ki [1, 16]: 2.5 nM
IC50 [1, 17]: 14.9 nM
IC20 [1, 13]: 9.2 nM
IC20 [1, 14]: 5.9 nM
Ki [1, 18]: 0.8 nM
Ki ([1]; 15 min, preliminary temperature experiment (N = 2), read-out: TBG Ki): 2.9 nM
Ki [6]: 17 nM
Ki [7]: 0.6 nM
IC50 [8]: 17.2 nM
Ki ([9]; N.D means not detected, read-out: TBG literature Ki): 7 nM
Ki [10]: 2.6 nM

CC(C)(c1cc(Br)c(O)c(Br)c1)c1cc(Br)c(O)c(Br)c1 [TBBPA]
binding to TTR (in words) [11]: binding of TBBPA to TTR
Ki [2]: 17 nM
IC20 [3, 15]: 12 nM
IC50 ([3]; 110 nM FITC-T4, 30 nM TTR, RT, 15 min, average [95% CI], read-out: TTR IC50): 22 nM
Ki ([3]; 110 nM FITC-T4, 30 nM TTR, RT, 15 min, derived from IC20, average [95% CI], read-out: TTR Ki): 12 nM
T4EQ concentration (TTR binding) [3]: 3.73 nM
Contribution to T4EQ concentration (TTR binding) [3]: 19.5%
binding to TBG (in words) [12]: not to TBG
Ki [1, 16]: 3760 nM
IC50 [1, 17]: 68100 nM
IC20 [1, 13]: 7300 nM
IC20 [1, 14]: 6420 nM
Ki [1, 18]: 3310 nM
T4EQ concentration (TBG binding) ([1]; T4EQi = highest human blood concentration x T4-REPi): 2 pM
Contribution to T4EQ concentration (TBG binding) ([1]; mixture of highest human blood concentrations of TBBPA, triclosan and BPA): 0.1%

O=C(O)C(F)(F)C(F)(F)C(F)(F)C(F)(F)C(F)(F)C(F)(F)C(F)(F)C(F)(F)C(F)(F)C(F)(F)C(F)(F)C(F)(F)C(F)(F)F [PFTdA, perfluorotetradecanoic acid]
Ki ([9]; read-out: TBG Ki): 26600 nM

O=C(O)C(F)(F)C(F)(F)C(F)(F)C(F)(F)C(F)(F)C(F)(F)C(F)(F)C(F)(F)C(F)(F)C(F)(F)C(F)(F)C(F)(F)F [PFTA, perfluorotridecanoic acid]
Ki ([9]; read-out: TBG Ki): 23000 nM
